Data: patent publication US9169254B2, “Spiroimidazolone derivative” (Chugai Seiyaku Kabushiki Kaisha, priority 2009, dated 2015)

Target: T1, human PTH1 receptor (Homo sapiens, UniProt Q03431)
T1 sequence (Q03431 27-593): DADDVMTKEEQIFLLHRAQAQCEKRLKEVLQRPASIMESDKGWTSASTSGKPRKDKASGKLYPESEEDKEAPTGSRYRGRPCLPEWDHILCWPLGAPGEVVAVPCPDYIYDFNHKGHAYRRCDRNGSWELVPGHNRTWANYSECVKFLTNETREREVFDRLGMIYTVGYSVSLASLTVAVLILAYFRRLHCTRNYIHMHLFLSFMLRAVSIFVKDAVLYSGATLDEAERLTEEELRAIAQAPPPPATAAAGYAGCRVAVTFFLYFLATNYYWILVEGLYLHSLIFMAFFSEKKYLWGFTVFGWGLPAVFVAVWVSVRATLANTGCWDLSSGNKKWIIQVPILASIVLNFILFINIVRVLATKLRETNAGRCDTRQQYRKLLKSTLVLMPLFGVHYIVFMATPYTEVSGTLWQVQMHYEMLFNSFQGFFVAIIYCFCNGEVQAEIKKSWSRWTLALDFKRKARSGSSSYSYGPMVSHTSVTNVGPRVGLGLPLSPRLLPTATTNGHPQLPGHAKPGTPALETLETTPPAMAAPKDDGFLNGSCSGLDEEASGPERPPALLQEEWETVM
Experiment: In vitro cAMP signal activity in HKRK-B7 cells (LLC-PK1 cells overexpressing the human PTH1 receptor)
Assay type: cell-based
Details: HKRK-B7 cells, compound at 1×10^−3 M, cAMP produced as percentage of that produced by hPTH(1-34) at 100 nM

SMILES | cAMP production activity (%) | cAMP production activity (%) (0.1 µM)
Cc1cc(C(=O)N2CCC(OCCN(C)C)CC2)cc(C)c1/C=C/S(=O)(=O)N1CCC2(CC1)N=C(c1cccc(OC(F)(F)F)c1)NC2=O [Compound 407, 8-((E)-2-{4-[4-(2-dimethylamino-ethoxy)-piperidine-1-carbonyl]-2,6-dimethyl-phenyl}-ethenesulfonyl)-2-(3-trifluoromethoxy-phenyl)-1,3,8-triaza-spiro[4.5]dec-1-en-4-one] | 49 | 
Cc1cc(C(=O)N2CCSC2)ccc1CCS(=O)(=O)N1CCC2(CC1)N=C(c1cccc(OC(F)(F)F)c1)NC2=O [Compound 417, 8-{2-[2-methyl-4-(thiazolidine-3-carbonyl)-phenyl]-ethanesulfonyl}-2-(3-trifluoromethoxy-phenyl)-1,3,8-triaza-spiro[4.5]dec-1-en-4-one] | 97 | 
Cc1cc(OC[C@H](O)CO)cc(C)c1/C=C/S(=O)(=O)N1CCC2(CC1)N=C(C1CCCCC1)NC2=O [Compound 206, 2-cyclohexyl-8-{(E)-2-[4-((R)-2,3-dihydroxy-propoxy)-2,6-dimethyl-phenyl]-ethenesulfonyl}-1,3,8-triaza-spiro[4.5]dec-1-en-4-one] | 70 | 
Cc1cc(S(=O)(=O)NCCN(C)C)ccc1CCS(=O)(=O)N1CCC2(CC1)N=C(C1CCCCC1)NC2=O [Compound 844, 4-[2-(2-cyclohexyl-4-oxo-1,3,8-triaza-spiro[4.5]dec-1-ene-8-sulfonyl)-ethyl]-N-(2-dimethylamino-ethyl)-3-methyl-benzenesulfonamide] | 86 | 
O=C1NC(C2CCC(C(F)(F)F)CC2)=NC12CCN(S(=O)(=O)c1cccc(Cl)c1)CC2 (stereo not drawn) [Compound 17, 8-(3-chloro-benzenesulfonyl)-2-(4-trifluoromethyl-cyclohexyl)-1,3,8-triaza-spiro[4.5]dec-1-en-4-one] | 39 | 
CCC[C@@H]1CCC[C@H](C2=NC3(CCN(S(=O)(=O)/C=C/c4c(C)cc(N(C)C(N)=O)cc4C)CC3)C(=O)N2)C1 [Compound 1108, 1-(3,5-Dimethyl-4-{(E)-2-[4-oxo-2-((1S,3R)-3-propyl-cyclohexyl)-1,3,8-triaza-spiro[4.5]dec-1-ene-8-sulfonyl]-vinyl}-phenyl)-1-methyl-urea] | 99 | 
COCCC1CCC(C2=NC3(CCN(S(=O)(=O)CCc4ccc(C(=O)N(C)C)cc4C)CC3)C(=O)N2)CC1 (stereo not drawn) [Compound 902, 4-(2-{2-[4-(2-Methoxy-ethyl)-cyclohexyl]-4-oxo-1,3,8-triaza-spiro[4.5]dec-1-ene-8-sulfonyl}-ethyl)-3,N,N-trimethyl-benzamide] | 67 | 
Cc1cc(N(C[C@H](O)CO)C(N)=O)cc(C)c1/C=C/S(=O)(=O)N1CCC2(CC1)N=C(C1CCC(C)CC1)NC2=O (stereo partly drawn) [Compound 733, 1-((S)-2,3-Dihydroxy-propyl)-1-(3,5-dimethyl-4-{(E)-2-[2-(4-methyl-cyclohexyl)-4-oxo-1,3,8-triaza-spiro[4.5]dec-1-ene-8-sulfonyl]-vinyl}-phenyl)-urea] | 104 | 
Cc1cc(N(C)C(N)=O)c(C)cc1CCS(=O)(=O)N1CCC2(CC1)N=C(C1CCC(C)CC1)NC2=O (stereo not drawn) [Compound 680, 1-(2,5-dimethyl-4-{2-[2-(4-methyl-cyclohexyl)-4-oxo-1,3,8-triaza-spiro[4.5]dec-1-ene-8-sulfonyl]-ethyl}-phenyl)-1-methyl-urea] | 101 | 
CCCCCCCC#CC1=NC2(CCN(S(=O)(=O)/C=C/c3c(C)cc(N(C)C(N)=O)cc3C)CC2)C(=O)N1 [Compound 1027, 1-{3,5-dimethyl-4-[(E)-2-(2-non-1-ynyl-4-oxo-1,3,8-triaza-spiro[4.5]dec-1-ene-8-sulfonyl)-vinyl]-phenyl}-1-methyl-urea] | 82 | 
COC(=O)c1cc(C)c(S(=O)(=O)N2CCC3(CC2)N=C(C2CCCCC2)NC3=O)s1 [Compound 63, 5-(2-cyclohexyl-4-oxo-1,3,8-triaza-spiro[4.5]dec-1-ene-8-sulfonyl)-4-methyl-thiophene-2-carboxylic acid methyl ester] | 51 | 
Cc1cc(N(CCO)C(N)=O)cc(C)c1/C=C/S(=O)(=O)N1CCC2(CC1)N=C(c1cccc(OC(F)(F)F)c1)NC2=O [Compound 605, 1-(3,5-dimethyl-4-{(E)-2-[4-oxo-2-(3-trifluoromethoxy-phenyl)-1,3,8-triaza-spiro[4.5]dec-1-ene-8-sulfonyl]-vinyl}-phenyl)-1-(2-hydroxy-ethyl)-urea] | 54 | 
Cc1cc2ccc1CCS(=O)(=O)N1CCC3(CC1)N=C(NC3=O)c1cc(cc(C(F)(F)F)c1)OCC[C@H](O)[C@H](O)COCCN(C)C2=O [Compound 1439] | 18 | 
CC(=O)Nc1ccc(CCS(=O)(=O)N2CCC3(CC2)N=C([C@H]2CC[C@@H](CCF)CC2)NC3=O)c(C)c1 [Compound 1072, N-[4-(2-{2-[4-(2-fluoro-ethyl)-cyclohexyl]-4-oxo-1,3,8-triaza-spiro[4.5]dec-1-ene-8-sulfonyl}-ethyl)-3-methyl-phenyl]-acetamide] | 54 | 
CCCCCCCCCC1=NC2(CCN(S(=O)(=O)CCc3c(C)cc(N(C)C(N)=O)cc3C)CC2)C(=O)N1 [Compound 817, 1-{3,5-dimethyl-4-[2-(2-nonyl-4-oxo-1,3,8-triaza-spiro[4.5]dec-1-ene-8-sulfonyl)-ethyl]-phenyl}-1-methyl-urea] | 111 | 
CC(=O)Nc1ccc(/C=C/S(=O)(=O)N2CCC3(CC2)N=C(C2CCC(C)CC2)NC3=O)c(OC(C)C)c1 (stereo not drawn) [Compound 506, N-(3-isopropoxy-4-{(E)-2-[2-(4-methyl-cyclohexyl)-4-oxo-1,3,8-triaza-spiro[4.5]dec-1-ene-8-sulfonyl]-vinyl}-phenyl)-acetamide] | 83 | 
CC(=O)N(CCOCCF)c1ccc(CCS(=O)(=O)N2CCC3(CC2)N=C(C2CCC(CCC(F)(F)F)CC2)NC3=O)c(C)c1 (stereo not drawn) [Compound 757, N-[2-(2-fluoro-ethoxy)-ethyl]-N-[3-methyl-4-(2-{4-oxo-2-[4-(3,3,3-trifluoro-propyl)-cyclohexyl]-1,3,8-triaza-spiro[4.5]dec-1-ene-8-sulfonyl}-ethyl)-phenyl]-acetamide] | 79 | 
Cc1cc(C(=O)N2CCC(C)(O)CC2)cc(C)c1/C=C/S(=O)(=O)N1CCC2(CC1)N=C(c1ccc(Cl)c(OCC(F)(F)C(F)F)c1)NC2=O [Compound 1229, 2-[4-chloro-3-(2,2,3,3-tetrafluoro-propoxy)-phenyl]-8-{(E)-2-[4-(4-hydroxy-4-methyl-piperidine-1-carbonyl)-2,6-dimethyl-phenyl]-ethenesulfonyl}-1,3,8-triaza-spiro[4.5]dec-1-en-4-one] | 56 | 
Cc1cc(CN2C(=O)NC(C)(C)C2=O)cc(C)c1CCS(=O)(=O)N1CCC2(CC1)N=C(C1CCC(C)CC1)NC2=O (stereo not drawn) [Compound 780, 3-(3,5-dimethyl-4-{2-[2-(4-methyl-cyclohexyl)-4-oxo-1,3,8-triaza-spiro[4.5]dec-1-ene-8-sulfonyl]-ethyl}-benzyl)-5,5-dimethyl-imidazolidine-2,4-dione] | 48 | 
C#C[C@H]1CC[C@@H](C2=NC3(CCN(S(=O)(=O)CCc4ccc(NC(C)=O)cc4C)CC3)C(=O)N2)CC1 [Compound 1370, N-(4-{2-[2-(4-Ethynyl-cyclohexyl)-4-oxo-1,3,8-triaza-spiro[4.5]dec-1-ene-8-sulfonyl]-ethyl}-3-methyl-phenyl)-acetamide] |  | 64
Cc1cc(NC(=O)[C@@H](N)CO)ccc1/C=C/S(=O)(=O)N1CCC2(CC1)N=C(c1cccc(C(F)(F)F)c1)NC2=O [Compound 688, (S)-2-Amino-3-hydroxy-N-(3-methyl-4-{(E)-2-[4-oxo-2-(3-trifluoromethyl-phenyl)-1,3,8-triaza-spiro[4.5]dec-1-ene-8-sulfonyl]-vinyl}-phenyl)-propionamide] | 55 | 
O=C1NC(C2CCC(C(F)(F)F)CC2)=NC12CCN(S(=O)(=O)CCc1cccc3ccccc13)CC2 (stereo not drawn) [Compound 37, 8-(2-naphthalen-1-yl-ethanesulfonyl)-2-(4-trifluoromethyl-cyclohexyl)-1,3,8-triaza-spiro[4.5]dec-1-en-4-one] | 54 | 
Cc1cc(C(=O)N2CCC(C)(O)CC2)cc(C)c1/C=C/S(=O)(=O)N1CCC2(CC1)N=C(c1ccc(F)c(Cl)c1)NC2=O [Compound 1186, 2-(3-chloro-4-fluoro-phenyl)-8-{(E)-2-[4-(4-hydroxy-4-methyl-piperidine-1-carbonyl)-2,6-dimethyl-phenyl]-ethenesulfonyl}-1,3,8-triaza-spiro[4.5]dec-1-en-4-one] | 110 | 
O=C1NC(c2cccc(OC(F)(F)F)c2)=NC12CCN(S(=O)(=O)CCc1cccc3[nH]ccc13)CC2 [Compound 305, 8-[2-(1H-indol-4-yl)-ethanesulfonyl]-2-(3-trifluoromethoxy-phenyl)-1,3,8-triaza-spiro[4.5]dec-1-en-4-one] | 73 | 
